Laboratory results published in ChEMBL document CHEMBL5380800, “Discovery of Small-Molecule Autophagy Inhibitors by Disrupting the Protein-Protein Interactions Involving Autophagy-Related 5” (J Med Chem, 2023).
Active and inactive are the calls of the source. The calls are words filed in the database; no cut-off is given here.

Experiments:
[1] = tested on: COS-7; assay: Inhibition of autophagy in African green monkey COS-7 cells at 20 uM by flow cytometry analysis relative to control; format: functional; details: Chlorocebus aethiops
[2] = Inhibition of ATG5-TECAIR (unknown origin) protein protein interaction expressed in Escherichia coli BL21 (DE3) by HTRF method; design: species or system Homo sapiens
[3] = Inhibition of ATG5-ATG16L1 (unknown origin) protein protein interaction expressed in Escherichia coli BL21 (DE3) by HTRF method; design: species or system Homo sapiens
[4] = tested on: COS-7; assay: Inhibition of autophagy in African green monkey COS-7 cells assessed as effect on LC3 level at upto 40 uM by flow cytometry analysis; format: functional, cell-based; details: Chlorocebus aethiops

Row | SMILES | inhibition at 20 µM [1] [%] | IC50 ([2]; read-out: IC50) [µM] | IC50 ([3]; read-out: IC50) [µM] | IC50 [3] | IC50 [2] | inhibition [4]
1 | O=C(O)c1ccc(N2C(=O)/C(=C/c3ccc(-c4cc(F)c(F)c(F)c4)s3)C=C2c2ccccc2)cc1 | 97.6 | 22 | 12 |  |  | 
2 | O=C(O)c1ccc(N2C(=O)/C(=C/c3ccc(-c4cccnc4)s3)C=C2c2ccccc2)cc1 | 97.3 | > 33 |  | Not Active |  | 
3 | O=C(O)c1ccc(N2C(=O)/C(=C/c3ccc(-c4ccc([N+](=O)[O-])cc4)s3)C=C2c2ccccc2)cc1 | 90.9 | 30 | 18 |  |  | 
4 | O=C(O)c1ccc(N2C(=O)/C(=C/c3ccc(-c4ccc(Cl)cc4)o3)C=C2c2ccccc2)cc1 | 98.2 | 17 | > 33 |  |  | 
5 | O=C(O)CCN1C(=O)/C(=C/c2ccc(-c3ccc([N+](=O)[O-])cc3Cl)o2)SC1=S |  | 23 | 16 |  |  | 
6 | O=C(O)c1ccc(N2C(=O)/C(=C/c3ccc(-c4cncnc4)s3)C=C2c2ccccc2)cc1 | 95.6 | > 11 | > 11 |  |  | 
7 | Cc1cc(-c2ccc(/C=C3\C(=O)N(c4ccc(C(=O)O)cc4)N=C3C3CC3)s2)c(C(F)(F)F)cc1C |  | > 33 | > 33 |  |  | 
8 | O=C1/C(=C/c2ccc(-c3ccc([N+](=O)[O-])cc3)o2)C=C(c2ccccc2)N1Cc1ccccc1 | 78.7 |  |  | Not Active | Not Active | 
9 | CCN(CCO)CCCC(C)Nc1ccnc2cc(Cl)ccc12 (configuration not stated) |  |  |  |  |  | inactive
10 | O=C(O)CN1C(=O)/C(=C/c2ccc(-c3ccc([N+](=O)[O-])cc3)o2)C=C1c1ccccc1 | 3.29 | 31.2 |  | Not Active |  | 
11 | COC(=O)c1ccc(N2C(=O)/C(=C/c3ccc(-c4ccc([N+](=O)[O-])cc4)o3)C=C2c2ccccc2)cc1 | 98.9 |  |  | Not Active | Not Active | 
12 | O=C(O)c1ccc(CN2C(=O)/C(=C/c3ccc(-c4ccccc4)o3)C=C2c2ccccc2)cc1 | 20.6 | > 33 | > 33 |  |  | 
13 | CC1=NN(c2ccc(C(=O)O)cc2)C(=O)/C1=C\c1ccc(-c2ccccc2C(F)F)o1 |  | > 33 | 21.4 |  |  | 
14 | CC1=NN(c2ccc(C(=O)O)cc2)C(=O)/C1=C\c1ccc(-c2cc(C)c(C)cc2C(F)(F)F)o1 |  | 31.1 | > 33 |  |  | 
15 | COC(=O)CCCCN1C(=O)/C(=C/c2ccc(-c3ccc([N+](=O)[O-])cc3)o2)C=C1c1ccccc1 | 16.6 |  |  | Not Active | Not Active | 
16 | CC1=NN(c2ccc(C(=O)O)cc2)C(=O)/C1=C\c1ccc(-c2ccccc2P(C)(C)=O)o1 |  |  |  | Not Active | Not Active | 
17 | COc1ccc(-c2ccc(/C=C3\C=C(c4ccccc4)N(c4ccc(C(=O)O)cc4)C3=O)o2)cc1 | 96.6 | 16 | 25 |  |  | 
18 | CCCCN1C(=O)/C(=C/c2ccc(-c3ccc([N+](=O)[O-])cc3)o2)C=C1c1ccccc1 | 77.8 |  |  |  |  | 
19 | COC(=O)c1ccc(CN2C(=O)/C(=C/c3ccc(-c4ccc([N+](=O)[O-])cc4)o3)C=C2c2ccccc2)cc1 | 59.8 |  |  | Not Active | Not Active | 
20 | CC1=NN(c2ccc(-n3cnnn3)cc2)C(=O)/C1=C\c1ccc(-c2cc(C)c(C)cc2[N+](=O)[O-])o1 |  | > 33 | > 33 |  |  | 
21 | CC(=O)Nc1cccc(-c2ccc(/C=C3\C=C(c4ccccc4)N(Cc4ccc(C(=O)O)cc4)C3=O)o2)c1 | 20 |  |  | Not Active | Not Active | 
22 | CC1=NN(c2ccc(C(=O)O)cc2)C(=O)/C1=C\c1ccc(-c2cc(C)c(C)cc2[N+](=O)[O-])o1 |  | > 33 | > 33 |  |  | 
23 | COC(=O)c1cccc(CN2C(=O)/C(=C/c3ccc(-c4ccc([N+](=O)[O-])cc4)o3)C=C2c2ccccc2)c1 | 78.4 |  |  |  |  | 
24 | CC1=NN(c2ccc(C(=O)O)cc2)C(=O)C1Cc1ccc(-c2cccc([N+](=O)[O-])c2)s1 (configuration not stated) |  | > 33 |  | Not Active |  | 
25 | O=C(O)c1ccc(CN2C(=O)/C(=C/c3ccc(-c4cccc([N+](=O)[O-])c4)o3)C=C2c2ccccc2)cc1 | 36 | 10.5 | 6.14 |  |  | 
26 | O=C(O)CCCN1C(=O)/C(=C/c2ccc(-c3ccc([N+](=O)[O-])cc3)o2)C=C1c1ccccc1 | 5.3 | 20.8 |  | Not Active |  | 
27 | COC(=O)CCN1C(=O)/C(=C/c2ccc(-c3ccc([N+](=O)[O-])cc3)o2)C=C1c1ccccc1 | 77.1 |  |  | Not Active | Not Active | 
28 | CCOC(=O)CN1C(=O)/C(=C/c2ccc(-c3ccc([N+](=O)[O-])cc3)o2)C=C1c1ccccc1 | 79 |  |  |  |  | 
29 | O=C(O)CCN1C(=O)/C(=C\c2ccc(-c3ccc([N+](=O)[O-])cc3)o2)SC1=S |  | 19 | 27 |  |  | 
30 | Cc1cc(-c2ccc(CC3C(=O)N(c4ccc(C(=O)O)cc4)N=C3C3CC3)s2)c([N+](=O)[O-])cc1C (configuration not stated) |  | > 33 | > 33 |  |  | 
